Laboratory results taken from ChEMBL document CHEMBL1126370, “Neuropeptide Y (NPY) functional group mimetics: design, synthesis, and characterization as NPY receptor antagonists” (Bioorg Med Chem Lett, 1992).

Legend:
[1] = Percent maximum displacement of the [3H]NPY by the compound in the rat brain membrane was evaluated; type: cell membranes
Rattus norvegicus = species on record: Rattus norvegicus; experiment: Inhibitory concentration was evaluated against the vasoconstriction induced by NPY in the rat femoral artery ring; type: functional
[2] = The receptor binding activity as the displacement of specifically bound [3H]-NPY from male Sprague-Dawley rat brain membrane homogenates; type: tissue-based
[3] = The receptor binding activity was evaluated as the displacement of specifically bound [3H]-NPY from male Sprague-Dawley rat brain membrane homogenates; type: tissue-based
[4] = Inhibition constant to displace [3H]-NPY from rat brain membrane after treatment with 500 evaluated; type: tissue-based

Max displacement [1] [%] | IC50 (Rattus norvegicus) [nM] | IC50 [2] [µM] | IC50 [3] [µM] | Ki [4] [µM] | Structure (SMILES)
61 | 43.1 | 56 |  |  | COc1ccccc1CNCCCCCCNCCSSCCNCCCCCCNCc1ccccc1OC [BENEXTRAMINE]
63 | 414 |  | 18.5 |  | N/C(=N\CCNC(=O)C(N)Cc1ccc(OCc2c(Cl)cccc2Cl)cc1)NCCSSCCN/C(N)=N/CCNC(=O)C(N)Cc1ccc(OCc2c(Cl)cccc2Cl)cc1 (stereo not given)
100 | 2860 |  | 45.4 | 35.5 | N/C(=N\CCNC(=O)C(N)Cc1ccc(OCc2c(Cl)cccc2Cl)cc1)NCCCCCCN/C(N)=N/CCNC(=O)C(N)Cc1ccc(OCc2c(Cl)cccc2Cl)cc1 (stereo not given)
